In patent publication US20240342292A1, “Compounds for the Degradation of EGFR Kinase” (BeiGene Switzerland GmbH, priority 2021, published 2024):

Assays:
Del19/T790M/C797S EGFR = assay: EGFR degradation HTRF assay in H1975-clone #28 (DTC) cells; assay type: cell-based; conditions: H1975 # 28 DTC (Del19/T790M/C797S), 16h treatment; for DC50: HTRF; for Dmax (%): maximum percentage of degradation
How it was run: (§1)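 DC50 from a four-parameter fit of HTRF signal. H1975 mutant-EGFR clones with endogenous EGFR knocked out; 16 h treatment, 10 uM top, 5-fold × 8.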

L858R/T790M/C797S EGFR = biological target: T1, L858R/T790M/C797S EGFR (Homo sapiens, UniProt P00533, C797S/L858R/T790M); assay: EGFR degradation HTRF assay in H1975-clone #25 (LTC) cells; assay type: cell-based; conditions: 16h treatment; for DC50: H1975 # 25-LTC (L858R/T790M/C797S), HTRF; for Dmax: NCI-H1975, H1975 # 25-LTC (L858R/T790M/C797S), maximum percentage of degradation
T1 construct: expressed in transfected cells; host or cells: H1975 clone #25 (lentiviral over-expression, endogenous EGFR knocked out by sgRNA)
How it was run: as §1

T1 sequence (P00533 25-1210 T790M/C797S/L858R): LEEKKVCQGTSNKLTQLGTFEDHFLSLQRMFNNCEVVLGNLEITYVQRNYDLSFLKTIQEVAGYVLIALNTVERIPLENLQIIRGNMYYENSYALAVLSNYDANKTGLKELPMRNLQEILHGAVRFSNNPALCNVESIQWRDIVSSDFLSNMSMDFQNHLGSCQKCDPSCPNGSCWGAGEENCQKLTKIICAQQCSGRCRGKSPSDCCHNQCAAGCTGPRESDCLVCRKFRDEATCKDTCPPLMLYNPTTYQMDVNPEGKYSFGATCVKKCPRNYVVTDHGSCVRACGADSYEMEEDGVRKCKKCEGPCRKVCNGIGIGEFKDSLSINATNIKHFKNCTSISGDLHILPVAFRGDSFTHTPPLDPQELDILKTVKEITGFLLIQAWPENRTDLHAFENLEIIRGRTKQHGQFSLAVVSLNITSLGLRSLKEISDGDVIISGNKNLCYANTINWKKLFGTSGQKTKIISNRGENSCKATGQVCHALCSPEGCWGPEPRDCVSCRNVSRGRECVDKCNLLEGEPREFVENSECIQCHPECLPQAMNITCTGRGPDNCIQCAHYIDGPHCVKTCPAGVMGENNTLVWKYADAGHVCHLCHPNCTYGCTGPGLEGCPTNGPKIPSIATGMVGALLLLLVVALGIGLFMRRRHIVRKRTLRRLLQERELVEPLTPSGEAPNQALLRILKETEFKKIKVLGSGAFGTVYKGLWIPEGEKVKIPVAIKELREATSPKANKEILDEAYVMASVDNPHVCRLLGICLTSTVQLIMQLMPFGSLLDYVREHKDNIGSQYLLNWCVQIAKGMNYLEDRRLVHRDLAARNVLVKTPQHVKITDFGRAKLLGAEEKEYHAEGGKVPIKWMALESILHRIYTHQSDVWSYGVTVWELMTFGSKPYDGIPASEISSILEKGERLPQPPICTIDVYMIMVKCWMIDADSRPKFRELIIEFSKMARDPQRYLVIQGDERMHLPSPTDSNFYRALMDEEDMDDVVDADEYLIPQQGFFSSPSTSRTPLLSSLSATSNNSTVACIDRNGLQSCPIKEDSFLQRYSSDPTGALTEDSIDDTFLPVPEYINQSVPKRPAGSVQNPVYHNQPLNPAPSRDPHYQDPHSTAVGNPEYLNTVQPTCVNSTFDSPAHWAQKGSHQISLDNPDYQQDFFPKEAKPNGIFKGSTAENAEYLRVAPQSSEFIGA

## Cc1cc2cc(n1)-c1cnn(C)c1OCCC[C@@H](C)CN1/C(=N/C2=O)Nc2ccc(C(=O)N(C)[C@H]3CCN(CCc4cc(F)c([C@H]5CCC(=O)NC5=O)c(F)c4)C[C@H]3C)cc21 [Example 256, (R,E)-N-((3R,4S)-1-(4-((R)-2,6-dioxopiperidin-3-yl)-3,5-difluorophenethyl)-3-methylpiperidin-4-yl) -N,1^1,2^6,7-tetramethyl-3-oxo-5^2,5^3-dihydro-1^1H,5^1H-11-oxa-4-aza-5(2,1)-benzo[d]imidazola-2(2,4)-pyridina-1(4,5)-pyrazolacycloundecaphane-5^6-carboxamide]
Del19/T790M/C797S EGFR
  DC50: 0.608 nM
  Dmax (%): 83.08%
L858R/T790M/C797S EGFR
  DC50: 0.326 nM
  Dmax: 88.1%

## Cc1cc2cc(n1)-c1cnn(C)c1OCCC[C@@H](C)CN1/C(=N/C2=O)Nc2ccc(C3CCN(C(=O)[C@H]4CN(c5cc(F)c([C@H]6CCC(=O)NC6=O)c(F)c5)CC4(C)C)CC3)cc21 [Example 327, (R)-3-(4-((R)-3,3-dimethyl-4-(4-((R,E)-1^1,2^6,7-trimethyl-3-oxo-5^2,53-dihydro-1^1H,5^1H-11-oxa-4-aza-5(2,1)-benzo[d]imidazola-2(2,4)-pyridina-1(4,5)-pyrazolacycloundecaphane-5^6-yl)piperidine-1-carbonyl)pyrrolidin-1-yl)-2,6-difluorophenyl)piperidine-2,6-dione]
Del19/T790M/C797S EGFR
  DC50: 1.09 nM
  Dmax (%): 74.51%
L858R/T790M/C797S EGFR
  DC50: 3.17 nM
  Dmax: 83.7%

## Cc1cc2cc(n1)-c1cnn(C)c1OCCC[C@@H](C)CN1/C(=N/C2=O)Nc2ccc(C(=O)N3CC4(C3)CN(C(=O)C3CN(c5cc(F)c([C@H]6CCC(=O)NC6=O)c(F)c5)C3)C4)cc21 [Example 229, (R)-3-(2,6-difluoro-4-(3-(6-((R,E)-1^1,2^6,7-trimethyl-3-oxo-5^2,5^3-dihydro-1^1H,5^1H-11-oxa-4-aza-5(2,1)-benzo[d]imidazola-2(2,4)-pyridina-1(4,5)-pyrazolacycloundecaphane-5^6-carbonyl)-2,6-diazaspiroheptane-2-carbonyl)azetidin-1-yl)phenyl)piperidine-2,6-dione]
Del19/T790M/C797S EGFR
  DC50: 1.79 nM
  Dmax (%): 78.12%
L858R/T790M/C797S EGFR
  DC50: 1.27 nM
  Dmax: 86.9%

## Cc1cc2cc(n1)-c1cnn(C)c1OCCC[C@@H](C)CN1/C(=N/C2=O)Nc2ccc(C(=O)N(CCN3CCC(c4cc(F)c([C@H]5CCC(=O)NC5=O)c(F)c4)CC3)C(C)C)cc21 [Example 283, (R,E)-N-(2-(4-(4-((R)-2,6-dioxopiperidin-3-yl)-3,5-difluorophenyl)piperidin-1-yl)ethyl)-N-isopropyl-1^1,2^6,7-trimethyl-3-oxo-5^2,5^3-dihydro-1^1H,5^1H-11-oxa-4-aza-5(2,1)-benzo[d]imidazola-2(2,4)-pyridina-1(4,5)-pyrazolacycloundecaphane-5^6-carboxamide]
Del19/T790M/C797S EGFR
  DC50: 0.617 nM
  Dmax (%): 72.52%
L858R/T790M/C797S EGFR
  DC50: 0.494 nM
  Dmax: 80.2%

## Cc1cc2cc(n1)-c1cnn(C)c1OCCC[C@@H](C)CN1/C(=N/C2=O)Nc2ccc(N3CCN([C@H]4CCN(c5ccc([C@H]6CCC(=O)NC6=O)nc5C)C[C@@H]4F)CC3)cc21 [Example 440, (R)-3-(5-((3S,4S)-3-fluoro-4-(4-((R,L)-1^1,2^6,7-trimethyl-3-oxo-5^2,5′-dihydro-1^1H,5^1H-11-oxa-4-aza-5(2,1)-benzo[d]imidazola-2(2,4)-pyridina-1(4,5)-pyrazolacycloundecaphane-5^6-yl)piperazin-1-yl)piperidin-1-yl)-6-methylpyridin-2-yl)piperidine-2,6-dione]
Del19/T790M/C797S EGFR
  DC50: 0.884 nM
  Dmax (%): 85.39%
L858R/T790M/C797S EGFR
  DC50: 0.936 nM
  Dmax: 93.5%

## Cc1cc2cc(n1)-c1cnn(C)c1OCCC[C@@H](C)CN1/C(=N/C2=O)Nc2ccc(N3CCN([C@H]4CCN(c5cc(F)c([C@H]6CCC(=O)NC6=O)c(F)c5)C[C@@H]4F)CC3)cc21 (single isomer, unassigned) [Example 424]
Del19/T790M/C797S EGFR
  DC50: 0.794 nM
  Dmax (%): 82.75%
L858R/T790M/C797S EGFR
  DC50: 2.51 nM
  Dmax: 89.8%

## Cc1cc2cc(n1)-c1cnn(C)c1OCCC[C@H](C)CN1/C(=N/C2=O)Nc2c(C)cc(CN3CCN(C(=O)C4CN(c5cc(F)c([C@H]6CCC(=O)NC6=O)c(F)c5)C4)CC3)cc21 [Example 154, (R)-3-(2,6-difluoro-4-(3-(4-(((S,E)-11,26,54,7-tetramethyl-3-oxo-5^2,5^1-dihydro-1^1H,5^1H-11-oxa-4-aza-5(2,1)-benzo[d]imidazola-2(2,4)-pyridina-1(4,5)-pyrazolacycloundecaphane-5^6-yl)methyl)piperazine-1-carbonyl)azetidin-1-yl)phenyl)piperidine-2,6-dione]
Del19/T790M/C797S EGFR
  DC50: 0.994 nM
  Dmax (%): 78.94%
L858R/T790M/C797S EGFR
  DC50: 0.998 nM
  Dmax: 79.4%

## Cc1cc2cc(n1)-c1cnn(C)c1OCCC[C@@H](C)CN1/C(=N/C2=O)Nc2ccc(N3CC(NC4CCN(c5cc(F)c([C@H]6CCC(=O)NC6=O)c(F)c5)CC4)C3)cc21 [Example 454, (R)-3-(2,6-difluoro-4-(4-((1-((R,E)-1^1,2^6,7-trimethyl-3-oxo-5^2,5^3-dihydro-1^1H,5^1H-11-oxa-4-aza-5(2,1)-benzo[d]imidazola-2(2,4)-pyridina-1(4,5)-pyrazolacycloundecaphane-5-yl)azetidin-3-yl)amino)piperidin-1-yl)phenyl)piperidine-2,6-dione]
Del19/T790M/C797S EGFR
  DC50: 0.765 nM
  Dmax (%): 68.28%
L858R/T790M/C797S EGFR
  DC50: 1.08 nM
  Dmax: 86%

## Cc1cc2cc(n1)-c1cnn(C)c1OCCC[C@@H](C)CN1/C(=N/C2=O)Nc2ccc(N3CCN(CCNc4cc(F)c([C@H]5CCC(=O)NC5=O)c(F)c4)[C@H](CC#N)C3)cc21 [Example 442, 2-((R)-1-(2-((4-((R)-2,6-dioxopiperidin-3-yl)-3,5-difluorophenyl)amino)ethyl)-4-((R,E)-1^1,2^6,7-trimethyl-3-oxo-5^2,5^3-dihydro-1^1H,5^1H-11-oxa-4-aza-5(2,1)-benzo[d]imidazola-2(2,4)-pyridina-1(4,5)-pyrazolacycloundecaphane-5^6-yl)piperazin-2-yl)acetonitrile]
Del19/T790M/C797S EGFR
  DC50: 0.721 nM
  Dmax (%): 70.20%
L858R/T790M/C797S EGFR
  DC50: 0.742 nM
  Dmax: 84.4%

## Cc1cc2cc(n1)-c1cnn(C)c1OCCC[C@@H](C)CN1/C(=N/C2=O)Nc2ccc(N3CCN(CCN(C)c4cc(F)c([C@H]5CCC(=O)NC5=O)c(F)c4)CC3)cc21 [Example 407, (R)-3-(2,6-difluoro-4-(methyl(2-(4-((R,E)-1^1,2^6,7-trimethyl-3-oxo-5^2,5^3-dihydro-1^1H,5^1H-11-oxa-4-aza-5(2,1)-benzo[d]imidazola-2(2,4)-pyridina-1(4,5)-pyrazolacycloundecaphane-5^6-yl)piperazin-1-yl)ethyl)amino)phenyl)piperidine-2,6-dione]
Del19/T790M/C797S EGFR
  DC50: 2.09 nM
  Dmax (%): 78.49%
L858R/T790M/C797S EGFR
  DC50: 2.29 nM
  Dmax: 87.9%

## Cc1cc2cc(n1)-c1cnn(C)c1OCCC[C@@H](C)CN1/C(=N/C2=O)Nc2ccc(C(=O)N[C@@H]3CCN(CCc4cc(F)c([C@H]5CCC(=O)NC5=O)c(F)c4)C[C@@H]3F)cc21 [Example 246, (R,E)-N-((3S,4R)-1-(4-((R)-2,6-dioxopiperidin-3-yl)-3,5-difluorophenethyl)-3-fluoropiperidin-4-yl)-1^1,2^6,7-trimethyl-3-oxo-5^2,5^3-dihydro-1^1H,5^1H-11-oxa-4-aza-5(2,1)-benzo[d]imidazola-2(2,4)-pyridina-1(4,5)-pyrazolacycloundecaphane-5^6-carboxamide]
Del19/T790M/C797S EGFR
  DC50: 0.602 nM
  Dmax (%): 85.73%
L858R/T790M/C797S EGFR
  DC50: 0.613 nM
  Dmax: 93.8%
